Test system: parental HEK-293T cells
Assay: cAMP-Glo assay in parental HEK-293T cells lacking RXFP1
Assay type: cell-based
Details: parental HEK-293T cells (lack RXFP1); relaxin 10 ng/mL or compound 10 µg/mL; 30 or 60 min

Substance: relaxin
- cAMP response in parental cells: no cAMP response

From patent US20160152679A1, “RELAXIN-LIKE COMPOUNDS AND USES THEREOF” (ANGION BIOMEDICA CORP., priority 2012, published 2016)
